Measurements as given in patent publication US10626095B2, “Cyanotriazole compounds” (OTSUKA PHARMACEUTICAL CO., LTD., priority 2013, dated 2020).

Experiments:
[1] = test system: NaCT-CHO (CHO cells stably expressing human NaCT); test: Assay of the citric acid cycle activation ([1,5-14C]-citric acid, diffusion of [14C]-CO2); format: cell-based; settings: 1 hour incubation at 37° C. with [1,5-14C]-citric acid
How it was run: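 NaCT-CHO cells (pME-CHO empty-vector cells for non-specific counts) were incubated 1 h at 37 °C in Na+-containing HEPES-Tris pH 7.4 with compound plus an equal volume of 0.4 mM [1,5-14C]-citric acid solution. Residual cell radioactivity was counted, [14C]-CO2 diffusion was taken as (Total−R)/(Total−NS)×100%, and EC50 was derived by regression.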

[2] = test system: Zucker Diabetic Fatty (ZDF) rat; test: Meal load test in type 2 diabetic model rats (postprandial blood glucose); format: in vivo; parameters: unit not given here; settings: ZDF rats fasted overnight, oral 30 mg/kg in 5% Arabia gum, blood glucose one hour after meal loading (50 kcal/kg)
Description: Effects on Type 2 Diabetes: Meal Load Test
To evaluate whether a cyanotriazol compound improves diabetes or not, especially related to postprandial blood glucose, meal load test was performed using one of type 2 diabetic model rats, the Zucker Diabetic Fatty (ZDF) rat (Charles river, Japan). About 24 animals fasted overnight (17 h) were taken blood samples from the tail veins, and measured blood glucose levels (Pre BG) and body weights (BW). Proper animals were selected and divided into […] (n=6) based on the Pre BG and BW using SAS Statistical Analysis System (SAS institute Japan Ltd. Release 9.1). The compounds to be tested (10 or 30 mg/kg body weight in 5% Arabia gum) or Arabia gum solution only (vehicle group) were orally administrated via gavage two hours prior to or just before meal loading (50 kcal/kg body weight). The meal suspension was prepared by mixing purified AIN-93G (Norsan Corp, Yokohama, Japan) and distilled water (2:3, w/v). One-hour after meal loading, blood glucose (BG1h) of each animal was measured. Effectiveness of each compound was shown by ? BG1h (BG1h difference between compound group and vehicle group). Although a set of 24 animals was used several times (from 13 weeks to 21 weeks of age), at least a one-week interval was placed from one to another test.

Compound | EC50 [1] | BG1h (BG1h difference between compound group and vehicle group) [2]
Cc1cc(-c2nn[nH]c2C#N)sc1-c1ccc(C(F)(F)F)cc1 [Example 130, 5-[4-methyl-5-(4-trifluoromethyl-phenyl)-thiophen-2-yl]-3H-[1,2,3]triazole-4-carbonitrile] | 730 nM | 
N#Cc1[nH]nnc1-c1ccc(Cc2ccc(Cl)cc2)s1 [Example 131, 5-[5-(4-chloro-benzyl)-thiophen-2-yl]-3H-[1,2,3]triazole-4-carbonitrile] | 440 nM | 
N#Cc1[nH]nnc1-c1ccc(Oc2cccc(C(F)(F)F)c2)s1 [Example 132, 5-[5-(3-trifluoromethyl-phenoxy)-thiophen-2-yl]-3H-[1,2,3]triazole-4-carbonitrile] | 320 nM | 
N#Cc1[nH]nnc1-c1ccc(/C=C/c2cccc(C(F)(F)F)c2)s1 [Example 133, 5-{5-[(E)-2-(3-trifluoromethyl-phenyl)-vinyl]-thiophen-2-yl}-3H-[1,2,3]triazole-4-carbonitrile] | 190 nM | 
N#Cc1[nH]nnc1-c1cscc1-c1cc(C(F)(F)F)cc(C(F)(F)F)c1 [Example 134, 5-[4-(3,5-bis-trifluoromethyl-phenyl)-thiophen-3-yl]-3H-[1,2,3]triazole-4-carbonitrile] | 85 nM | 
N#Cc1[nH]nnc1-c1cc(/C=C/c2cccc(C(F)(F)F)c2)co1 [Example 135, 5-{4-[(E)-2-(3-trifluoromethyl-phenyl)-vinyl]-furan-2-yl}-3H-[1,2,3]triazole-4-carbonitrile] | 1570 nM | 
N#Cc1[nH]nnc1-c1ccc(-c2ccc(Cl)cc2)o1 [Example 136, 5-[5-(4-chloro-phenyl)-furan-2-yl]-3H-[1,2,3]triazole-4-carbonitrile] | 680 nM | 
N#Cc1[nH]nnc1-c1cccn1Cc1ccc(C(F)(F)F)cc1C(F)(F)F [Example 138, 5-[1-(2,4-bis-trifluoromethyl-benzyl)-1H-pyrrol-2-yl]-3H-[1,2,3]triazole-4-carbonitrile] | 62 nM | 
Cn1c(-c2cc(F)cc(C(F)(F)F)c2)ccc1-c1nn[nH]c1C#N [Example 139, 5-[5-(3-fluoro-5-trifluoromethyl-phenyl)-1-methyl-1H-pyrrol-2-yl]-3H-[1,2,3]triazole-4-carbonitrile] | 210 nM | 
N#Cc1[nH]nnc1-c1ccn(-c2cc(C(F)(F)F)ccc2C(F)(F)F)c1 [Example 140, 5-[1-(2,5-bis-trifluoromethyl-phenyl)-1H-pyrrol-3-yl]-3H-[1,2,3]triazole-4-carbonitrile] | 800 nM | 
N#Cc1[nH]nnc1-c1cccc(-c2cccc(C(F)(F)F)c2)n1 [Example 141, 5-[6-(3-trifluoromethyl-phenyl)-pyridin-2-yl]-3H-[1,2,3]triazole-4-carbonitrile] | 710 nM | 
CCC(OCc1ccc(C(F)(F)F)cc1)c1cccc(-c2nn[nH]c2C#N)n1 (stereo not drawn) [Example 142, 5-{6-[1-(4-trifluoromethyl-benzyloxy)-propyl]-pyridin-2-yl}-3H-[1,2,3]triazole-4-carbonitrile] | 580 nM | 
N#Cc1[nH]nnc1-c1ccc(-c2cccc(C(F)(F)F)c2)nc1 [Example 143, 5-[6-(3-trifluoromethyl-phenyl)-pyridin-3-yl]-3H-[1,2,3]triazole-4-carbonitrile] | 1020 nM | 
N#Cc1[nH]nnc1C1CCN(c2cc(C(F)(F)F)ccc2C(F)(F)F)CC1 [Example 144, 5-[1-(2,5-bis-trifluoromethyl-phenyl)-piperidin-4-yl]-3H-[1,2,3]triazole-4-carbonitrile] | 790 nM | 
N#Cc1[nH]nnc1-c1ccc2ccn(-c3ccc(F)c(F)c3)c2c1 [Example 145, 5-[1-(3,4-difluoro-phenyl)-1H-indol-6-yl]-3H-[1,2,3]triazole-4-carbonitrile] | 370 nM | 
N#Cc1[nH]nnc1-c1sc2ccccc2c1-c1ccc(F)cc1 [Example 148, 5-[3-(4-fluoro-phenyl)-benzo[b]thiophen-2-yl]-3H-[1,2,3]triazole-4-carbonitrile] | 920 nM | 
N#Cc1[nH]nnc1Cc1cccc(-c2cccc(C(F)(F)F)c2)c1 [Example 149, 5-(3′-trifluoromethyl-biphenyl-3-ylmethyl)-3H-[1,2,3]triazole-4-carbonitrile] | 700 nM | 
N#Cc1[nH]nnc1CCc1ccccc1OCc1cc(C(F)(F)F)ccc1C(F)(F)F [Example 150, 5-{2-[2-(2,5-bis-trifluoromethyl-benzyloxy)-phenyl]-ethyl}-3H-[1,2,3]triazole-4-carbonitrile] | 860 nM | 
CC(OC(=O)OCC(C)(C)C(=O)O)n1nc(C#N)c(-c2cccc(OCc3cc(C(F)(F)F)ccc3C(F)(F)F)c2)n1 (stereo not drawn) [Example 1806, 3-(1-{4-[3-(2,5-bis-trifluoromethyl-benzyloxy)-phenyl]-5-cyano-2H-[1,2,3]triazol-2-yl}-ethoxycarbonyloxy)-2,2-dimethyl-propionic acid] |  | −86.3
CC(OC(=O)OCC(C)(C)C(=O)O)n1nc(C#N)c(-c2cc(Cl)cc(-c3ccc4c(c3)OC(F)(F)O4)c2)n1 (stereo not drawn) [Example 1808, 3-(1-{4-[3-chloro-5-(2,2-difluoro-benzo[1,3]dioxol-5-yl)-phenyl]-5-cyano-2H-[1,2,3]triazol-2-yl}-ethoxycarbonyloxy)-2,2-dimethyl-propionic acid] |  | −76.0
CC(OC(=O)OCC(C)(C)C(=O)O)n1nc(C#N)c(-c2cc(Cl)cc(-c3nccc(C(F)(F)F)n3)c2)n1 (stereo not drawn) [Example 1810, 3-(1-{4-[3-chloro-5-(4-trifluoromethyl-pyrimidin-2-yl)-phenyl]-5-cyano-2H-[1,2,3]triazol-2-yl}-ethoxycarbonyloxy)-2,2-dimethyl-propionic acid] |  | −53.2
CC(OC(=O)OCC(C)(C)C(=O)O)n1nc(C#N)c(-c2cc(Cl)cc(/C=C/c3cccc(C(F)(F)F)c3)c2)n1 (stereo not drawn) [Example 1811, 3-[1-(4-{3-chloro-5-[(E)-2-(3-trifluoromethyl-phenyl)-vinyl]-phenyl}-5-cyano-2H-[1,2,3]triazol-2-yl)-ethoxycarbonyloxy]-2,2-dimethyl-propionic acid] |  | −84.5
COc1cc(-c2cc(C(F)(F)F)ccn2)cc(-c2nn(C(C)OC(=O)OCC(C)(C)C(=O)O)nc2C#N)c1 (stereo not drawn) [Example 1812, 3-(1-{4-cyano-5-[3-methoxy-5-(4-trifluoromethyl-pyridin-2-yl)-phenyl]-2H-[1,2,3]triazol-2-yl}-ethoxycarbonyloxy)-2,2-dimethyl-propionic acid] |  | −111.8
CC(OC(=O)OCC(C)(C)C(=O)O)n1nc(C#N)c(-c2cc(/C=C/c3cccc(C(F)(F)F)n3)cc(C(F)(F)F)c2)n1 (stereo not drawn) [Example 1813, 3-[1-(4-cyano-5-{3-trifluoromethyl-5-[(E)-2-(6-trifluoromethyl-pyridin-2-yl)-vinyl]-phenyl}-2H-[1,2,3]triazol-2-yl)-ethoxycarbonyloxy]-2,2-dimethyl-propionic acid] |  | −73.0
CC(OC(=O)OCC(C)(C)C(=O)O)n1nc(C#N)c(-c2csc(-c3ccc(Cl)cc3)n2)n1 (stereo not drawn) [Example 1814] |  | −108.7
CC(OC(=O)OCC(C)(C)C(=O)O)n1nc(C#N)c(-c2cccc(/C=C/c3cc(C(F)(F)F)ccn3)c2)n1 (stereo not drawn) [Example 1815, 3-[1-(4-cyano-5-{3-[(E)-2-(4-trifluoromethyl-pyridin-2-yl)-vinyl]-phenyl}-2H-[1,2,3]triazol-2-yl)-ethoxycarbonyloxy]-2,2-dimethyl-propionic acid] |  | −63.2
CC(OC(=O)OCC(C)(C)C(=O)O)n1nc(C#N)c(-c2cccc(/C=C/c3nccc(C(F)(F)F)n3)c2)n1 (stereo not drawn) [Example 1816, 3-[1-(4-cyano-5-{3-[(E)-2-(4-trifluoromethyl-pyrimidin-2-yl)-vinyl]-phenyl}-2H-[1,2,3]triazol-2-yl)-ethoxycarbonyloxy]-2,2-dimethyl-propionic acid] |  | −45.5
CC(OC(=O)OCC(C)(C)C(=O)O)n1nc(C#N)c(-c2nc(-c3cccc(C(F)(F)F)c3)sc2Cl)n1 (stereo not drawn) [Example 1817, 3-(1-{4-[5-chloro-2-(3-trifluoromethyl-phenyl)-thiazol-4-yl]-5-cyano-2H-[1,2,3]triazol-2-yl}-ethoxycarbonyloxy)-2,2-dimethyl-propionic acid] |  | −106.5
CC(OC(=O)OCC(C)(C)C(=O)O)n1nc(C#N)c(-c2csc(-c3cccc(OC(F)(F)F)c3)n2)n1 (stereo not drawn) [Example 1818, 3-(1-{4-cyano-5-[2-(3-trifluoromethoxy-phenyl)-thiazol-4-yl]-2H-[1,2,3]triazol-2-yl}-ethoxycarbonyloxy)-2,2-dimethyl-propionic acid] |  | −33.0
CC(OC(=O)OCC(C)(C)C(=O)O)n1nc(C#N)c(-c2csc(-c3ccc(Cl)c(Cl)c3)n2)n1 (stereo not drawn) [Example 1819, 3-(1-{4-cyano-5-[2-(3,4-dichloro-phenyl)-thiazol-4-yl]-2H-[1,2,3]triazol-2-yl}-ethoxycarbonyloxy)-2,2-dimethyl-propionic acid] |  | −54.3
